Experimental data taken from patent publication US20040029829A1, “External skin preparations and process for producing the same” (priority 2000, published 2004).

Test system: human epidermic cells
Experiment: Cell activation effect by cell culture (metabolic activity, WST-1)
Assay type: cell-based
Details: 0.5% fermented product 1 (SB), alone or combined
Procedure: Immortalized cells obtained by transforming human epidermic cells (manufactured by Kurabo Industries, Ltd.) using SV40 virus T antigen according to the method of Yasumoto et al. (Cultured Cell Experiment For Molecular Biology Research by S. Yasumoto, edited by T. Kuroki et al., Yodosha Co., Ltd., 1995, pp 191-200) were used as test cells. The cells were disseminated in a 96 well plate (4×10^3 cells/0.1 ml/well) and cultured in a serum-free liquid medium for proliferation (HuMedia-KG 2: Kurabo Industries, Ltd.) under the conditions of 37° C. and a CO2 concentration of 5%. […] The cells were also cultured in media to which the above components were individually added as Comparative Examples, and in a medium to which none of these components were added as a control. On the third day of culturing, a reducing-type coloring reagent (WST-1, manufactured by Dojindo Co.) was added in an amount of 10 μl/well, followed by incubation for 2 hours under the conditions of 37° C. and a CO2 concentration of 5%. Then, absorption at 450-660 nm was measured. Metabolic activity of the cells was calculated from the resulting absorbance. The cell activation effect was evaluated from the rate of increase in the metabolic activity in comparison with the control sample. […]

| Structure (SMILES) | metabolic activity of human epidermic cells (5×10^−9 M all-trans-retinol (ROH), FIG. 1) | metabolic activity of human epidermic cells (5×10^−10 M all-trans-retinoic acid (RA), FIG. 2) |
| --- | --- | --- |
| CC1=C(/C=C/C(C)=C/C=C/C(C)=C/CO)C(C)(C)CCC1 [all-trans-retinol] | cannot exhibit metabolic activity |  |
| CC1=C(/C=C/C(C)=C/C=C/C(C)=C/C(=O)O)C(C)(C)CCC1 [all-trans-retinoic acid] |  | cannot exhibit metabolic activity |
